The values below are quoted from earlier work in US20030162725A1, “Synergistic pharmaceutical combinations for treating obesity with EGCG” (priority 2002, published 2003).

In the data set the test system is mouse.

With `N[C@@H](Cc1c[nH]c2ccc(O)cc12)C(=O)O` [5-HTP, 5-hydroxytryptophan], where the note is “i.p., species not restated (studies in the rat and mouse)”, the LD50 i.p. is 1400 mg/kg. The LD50 per os (per os in the mouse) is given as 2500 mg/kg.
